Several values for one entry are separate records, joined by “and”; a condition that tells them apart may be missing. Identical values can stand only once. Inconclusive results and toxic doses are left out.

The record followed here is PubChem BioAssay AID328 (DTP/NCI, 2004).

This experiment has as its system BDF1 mice, P388 leukemia ip, median survival T/C. Briefly: NCI In Vivo Anticancer Drug Screen. Data for tumor model P388 Leukemia (intraperitoneal) in B6D2F1 (BDF1) mice. Particulars: endpoint: median survival time, higher = longer survival. In outline: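 Mice carrying the transplantable tumour receive compound or vehicle. Survival is followed in each arm, and the treated measure is divided by the vehicle measure.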

The mark [1] stands for this setting: dose: 25.0 mg/kg/injection, schedule: Q04DX003 (ip), vehicle: water.
[2] abbreviates: dose: 50.0 mg/kg/injection, schedule: Q01DX009 (ip), vehicle: saline.
Where [3] appears, read: dose: 50.0 mg/kg/injection, schedule: Q04DX003 (ip), vehicle: water.
[4] abbreviates: dose: 100.0 mg/kg/injection, schedule: Q04DX003 (ip), vehicle: water.
[5] abbreviates: dose: 200.0 mg/kg/injection, schedule: Q01DX009 (ip), vehicle: saline.
[6] abbreviates: dose: 200.0 mg/kg/injection, schedule: Q04DX003 (ip), vehicle: saline with Tween-80.
Where [7] appears, read: dose: 50.0 mg/kg/injection, schedule: Q01DX009 (ip), vehicle: saline with Tween-80.
Where [8] appears, read: dose: 100.0 mg/kg/injection, schedule: Q01DX009 (ip), vehicle: saline with Tween-80.
[9] abbreviates: dose: 200.0 mg/kg/injection, schedule: Q01DX009 (ip), vehicle: saline with Tween-80.
The mark [10] stands for this setting: dose: 25.0 mg/kg/injection, schedule: Q01DX009 (ip), vehicle: saline with Tween-80.
Where [11] appears, read: dose: 25.0 mg/kg/injection, schedule: Q04DX003 (ip), vehicle: saline with Tween-80.
Setting [12] is: dose: 100.0 mg/kg/injection, schedule: Q04DX003 (ip), vehicle: saline with Tween-80.
Where [13] appears, read: dose: 100.0 mg/kg/injection, schedule: Q01DX009 (ip), vehicle: Klucel (hydroxypropylcellulose) (HPC).
[14] abbreviates: dose: 200.0 mg/kg/injection, schedule: Q04DX003 (ip), vehicle: Klucel (hydroxypropylcellulose) (HPC).
[15] abbreviates: dose: 400.0 mg/kg/injection, schedule: Q04DX003 (ip), vehicle: saline with Tween-80.
The mark [16] stands for this setting: dose: 100.0 mg/kg/injection, schedule: Q01DX009 (ip), vehicle: saline.
Where [17] appears, read: dose: 400.0 mg/kg/injection, schedule: Q01DX009 (ip), vehicle: saline.
Where [18] appears, read: dose: 100.0 mg/kg/injection, schedule: Q04DX003 (ip), vehicle: saline.
Setting [19] is: dose: 200.0 mg/kg/injection, schedule: Q04DX003 (ip), vehicle: saline.
The mark [20] stands for this setting: dose: 400.0 mg/kg/injection, schedule: Q04DX003 (ip), vehicle: saline.

As to `COc1ccc(CN(C)CCN(C)CCN(C)Cc2ccc(OC)cc2)cc1`, the T/C reads like this: (dose: 3.12 mg/kg/injection, schedule: Q01DX009 (ip), vehicle: water) 92 % of control; (dose: 6.25 mg/kg/injection, schedule: Q01DX009 (ip), vehicle: saline) 102 % of control; (dose: 6.25 mg/kg/injection, schedule: Q01DX009 (ip), vehicle: water) 108 % of control; (dose: 12.5 mg/kg/injection, schedule: Q01DX009 (ip), vehicle: saline) 103 % of control; (dose: 12.5 mg/kg/injection, schedule: Q01DX009 (ip), vehicle: water) 99 % of control; (dose: 25.0 mg/kg/injection, schedule: Q01DX009 (ip), vehicle: saline) 93 % of control. The T/C was 100 % of control (dose: 25.0 mg/kg/injection, schedule: Q01DX009 (ip), vehicle: water); 90 % of control under setting [1]; 86 % of control under setting [2]; 106 % of control (dose: 50.0 mg/kg/injection, schedule: Q01DX009 (ip), vehicle: water); 99 % of control under setting [3]; 96 % of control under setting [4].

On to `COCCOC(C)C(=O)C(O)S(=O)(=O)O` (stereo unspecified), for which the T/C is, setting by setting: (dose: 132.0 mg/kg/injection, schedule: Q01DX009 (ip), vehicle: saline) 150 % of control; under setting [5], 155 % of control; (dose: 300.0 mg/kg/injection, schedule: Q01DX009 (ip), vehicle: saline) 155 % of control.

With `CC(C)c1ccccc1OS(=O)(=O)c1c(F)c(F)c(F)c(F)c1F`, the T/C reads like this: (dose: 6.25 mg/kg/injection, schedule: Q01DX001 (ip), vehicle: saline with Tween-80) 104 % of control; (dose: 12.5 mg/kg/injection, schedule: Q01DX001 (ip), vehicle: saline with Tween-80) 109 % of control; (dose: 25.0 mg/kg/injection, schedule: Q01DX001 (ip), vehicle: saline with Tween-80) 118 % of control.

For the compound `Cc1[nH]nc(C(N)=O)c1N=NN(C)C`, the T/C runs as follows: (dose: 132.0 mg/kg/injection, schedule: Q04DX003 (ip), vehicle: saline with Tween-80) 182 % of control; under setting [6], 186 % of control; (dose: 300.0 mg/kg/injection, schedule: Q04DX003 (ip), vehicle: saline with Tween-80) 100 % of control.

With `COc1cc([N+](=O)[O-])cc(OC)c1OC`, the T/C is, setting by setting: under setting [7], 100 % of control; under setting [8], 94 % of control; under setting [9], 102 % of control; (dose: 400.0 mg/kg/injection, schedule: Q01DX009 (ip), vehicle: saline with Tween-80) 91 % of control.

Take `COc1cccc2ccc(CC(O)(c3ccccc3)c3ccccc3)nc12`: the T/C was 91 % of control under setting [10], 100 % of control under setting [7] and 100 % of control under setting [8].

As for `O=[N+]([O-])c1ccc(/C=N/c2ncc(Br)s2)o1`, the T/C under setting [10] was 120 % of control; the T/C under setting [11] was 104 % of control and 118 % of control; the T/C under setting [8] was 90 % of control; the T/C under setting [12] was 118 % of control; the T/C under setting [6] was 90 % of control.

As to `C#CC[As+](c1ccccc1)(c1ccccc1)c1ccccc1`, the T/C by setting is: (dose: 3.0 mg/kg/injection, schedule: Q01DX009 (ip), vehicle: Klucel (hydroxypropylcellulose) (HPC)) 121 % of control; (dose: 5.3 mg/kg/injection, schedule: Q04DX003 (ip), vehicle: Klucel (hydroxypropylcellulose) (HPC)) 117 % of control; (dose: 12.0 mg/kg/injection, schedule: Q04DX003 (ip), vehicle: Klucel (hydroxypropylcellulose) (HPC)) 104 % of control and 113 % of control; (dose: 25.0 mg/kg/injection, schedule: Q04DX003 (ip), vehicle: Klucel (hydroxypropylcellulose) (HPC)) 109 % of control.

Take `CC(C)(C)NC(C1=CC(C)(C)c2ccccc2C1=O)c1ccccc1` (stereo unspecified): the T/C is 105 % of control under setting [13]; 100 % of control (dose: 100.0 mg/kg/injection, schedule: Q04DX003 (ip), vehicle: Klucel (hydroxypropylcellulose) (HPC)); 110 % of control (dose: 200.0 mg/kg/injection, schedule: Q01DX009 (ip), vehicle: Klucel (hydroxypropylcellulose) (HPC)); 95 % of control under setting [14]; 90 % of control (dose: 400.0 mg/kg/injection, schedule: Q04DX003 (ip), vehicle: Klucel (hydroxypropylcellulose) (HPC)).

As for `CC1(c2cccc3ccccc23)NC(=O)c2ccccc2N1` (stereo unspecified), the T/C (dose: 50.0 mg/kg/injection, schedule: Q01DX009 (ip), vehicle: Klucel (hydroxypropylcellulose) (HPC)) was 105 % of control and the T/C under setting [13] was 120 % of control.

For the compound `CC(=O)CC(=O)NC(C)CCc1ccccc1` (stereo unspecified), the T/C by setting is: under setting [12], 104 % of control; under setting [6], 109 % of control; under setting [15], 109 % of control.

For the compound `COC(=O)CNC(=O)C(Cc1ccc(OCc2ccccc2)cc1)NC(=O)OC(C)(C)C` (stereo unspecified), the T/C reads like this: under setting [12], 105 % of control; under setting [6], 120 % of control; under setting [15], 120 % of control.

With `CCOC(=O)C(=CC(CC)(C(=O)OCC)C(=O)OCC)C(=O)OCC`, the T/C was 95 % of control under setting [16], 104 % of control under setting [5] and 104 % of control under setting [17].

For `OC(c1cc(-c2ccc(C(F)(F)F)cc2)nc(C(F)(F)F)c1)C1CCCCN1` (stereo unspecified), the T/C under setting [7] was 108 % of control.

In the case of `COC(=O)C(N)CSCSCc1ccccc1` (stereo unspecified), the T/C (dose: 6.25 mg/kg/injection, schedule: Q04DX003 (ip), vehicle: water) is 109 % of control; the T/C (dose: 12.5 mg/kg/injection, schedule: Q04DX003 (ip), vehicle: water) is 113 % of control; the T/C under setting [1] is 104 % of control; the T/C under setting [3] is 100 % of control; the T/C under setting [4] was 100 % of control.

Consider `CCOC(=S)SCC(=O)Nc1ccc(I)cc1`, for which the T/C is 93 % of control (dose: 15.0 mg/kg/injection, schedule: Q01DX009 (ip), vehicle: saline with Tween-80); 95 % of control (dose: 30.0 mg/kg/injection, schedule: Q01DX009 (ip), vehicle: saline with Tween-80); 98 % of control (dose: 60.0 mg/kg/injection, schedule: Q01DX009 (ip), vehicle: saline with Tween-80).

On to `COC(OC)C12CC(OC(=O)N1)C(C)CO2` (stereo unspecified), for which the T/C (dose: 50.0 mg/kg/injection, schedule: Q04DX003 (ip), vehicle: saline) is 98 % of control; the T/C under setting [18] is 106 % of control; the T/C under setting [19] was 96 % of control.

For the compound `Cc1ccc(C)c(C(C)NC2=NCCO2)c1` (stereo unspecified), the T/C was 90 % of control under setting [11] and 90 % of control (dose: 50.0 mg/kg/injection, schedule: Q04DX003 (ip), vehicle: saline with Tween-80).

`COc1cc2c(cc1OC)C1CC(O)(c3nccc4cc(OC)c(OC)cc34)CCN1CC2` (stereo unspecified): the T/C under setting [7] was 91 % of control, the T/C under setting [8] was 91 % of control and the T/C under setting [9] is 87 % of control.

Regarding `NC(=O)c1nc2c([nH]c1=O)CCCC2`, the T/C is 101 % of control under setting [2]; 100 % of control under setting [16]; 109 % of control under setting [18]; 110 % of control under setting [5]; 104 % of control under setting [19]; 93 % of control under setting [17]. The T/C under setting [20] is 95 % of control.

With `COc1cc(NC(=O)CN(CCCl)CCCl)cc(OC)c1OC`, the T/C runs as follows: (dose: 7.7 mg/kg/injection, schedule: Q04DX003 (ip), vehicle: Klucel (hydroxypropylcellulose) (HPC)) 107 % of control; (dose: 30.0 mg/kg/injection, schedule: Q04DX003 (ip), vehicle: Klucel (hydroxypropylcellulose) (HPC)) 122 % of control; (dose: 60.0 mg/kg/injection, schedule: Q04DX003 (ip), vehicle: Klucel (hydroxypropylcellulose) (HPC)) 104 % of control and 114 % of control; (dose: 90.0 mg/kg/injection, schedule: Q04DX003 (ip), vehicle: Klucel (hydroxypropylcellulose) (HPC)) 177 % of control; under setting [14], 209 % of control; (dose: 300.0 mg/kg/injection, schedule: Q04DX003 (ip), vehicle: Klucel (hydroxypropylcellulose) (HPC)) 122 % of control.

For the compound `O=C1CCC(=O)C12CCNCC2`, the T/C runs as follows: under setting [18], 100 % of control; under setting [19], 100 % of control; under setting [20], 109 % of control.
